Assay results as given in ChEMBL document CHEMBL4819016, “2-Propargylamino-naphthoquinone derivatives as multipotent agents for the treatment of Alzheimer's disease” (Eur J Med Chem, 2021).
Active and inactive are the calls of the source. The calls are words filed in the database; no cut-off is given here.

How the values were obtained:
SH-SY5Y = assay: Cytotoxicity against human SH-SY5Y cells measured after 24 hrs by MTT assay; type: functional, cell-based
[1] = Permeability of compound at pH 7.4 measured after 6 hrs by PAMPA assay
[2] = target: Amyloid-beta precursor protein (Homo sapiens) (UniProt P05067); assay: Inhibition of HFIP-pretreated amyloid beta (1 to 42) (unknown origin) self aggregation at 50 uM measured every 10 mins for 72 hrs by Thioflavin T flourimetric assay relative to control
Amyloid-beta precursor protein (Homo sapiens), sequence (P05067 whole entry): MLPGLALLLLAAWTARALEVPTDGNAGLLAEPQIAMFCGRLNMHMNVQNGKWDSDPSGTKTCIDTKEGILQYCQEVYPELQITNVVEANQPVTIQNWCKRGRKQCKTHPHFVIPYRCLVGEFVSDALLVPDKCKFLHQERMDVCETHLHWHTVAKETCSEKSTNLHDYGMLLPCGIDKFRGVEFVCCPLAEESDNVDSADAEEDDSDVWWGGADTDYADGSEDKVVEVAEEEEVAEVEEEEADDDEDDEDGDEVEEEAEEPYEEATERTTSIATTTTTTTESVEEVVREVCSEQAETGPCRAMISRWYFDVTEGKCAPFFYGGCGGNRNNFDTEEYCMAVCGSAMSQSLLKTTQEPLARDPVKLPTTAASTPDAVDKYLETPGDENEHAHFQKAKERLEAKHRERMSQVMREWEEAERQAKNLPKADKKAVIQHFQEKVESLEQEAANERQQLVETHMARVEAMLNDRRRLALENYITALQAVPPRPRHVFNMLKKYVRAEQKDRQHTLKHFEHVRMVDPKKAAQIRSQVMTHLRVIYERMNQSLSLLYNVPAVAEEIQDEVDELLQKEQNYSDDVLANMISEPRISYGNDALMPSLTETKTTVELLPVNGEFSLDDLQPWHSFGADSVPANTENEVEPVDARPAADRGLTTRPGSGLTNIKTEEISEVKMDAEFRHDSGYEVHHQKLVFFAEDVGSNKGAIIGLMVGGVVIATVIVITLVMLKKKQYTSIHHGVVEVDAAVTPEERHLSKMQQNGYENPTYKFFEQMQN

[3] = Cytotoxicity against mouse SIM-A9 cells assessed as non-toxic concentration measured after 24 hrs by MTT assay; type: functional
[4] = Cytotoxicity against mouse SIM-A9 cells measured after 24 hrs by MTT assay; type: functional, cell-based; settings: SIM-A9, 24 h
[5] = Radical scavenging activity of compound measured after 15 mins by ABTS radical scavenging activity in relative to clioquinol; type: functional
[6] = target: T1, Amine oxidase [flavin-containing] A (Homo sapiens, UniProt P21397); assay: Inhibition of human MAO-A preincubated for 5 mins followed by addition of Kynuramine substrate and measured after 30 mins by plate reader method
T1 sequence (P21397 whole entry): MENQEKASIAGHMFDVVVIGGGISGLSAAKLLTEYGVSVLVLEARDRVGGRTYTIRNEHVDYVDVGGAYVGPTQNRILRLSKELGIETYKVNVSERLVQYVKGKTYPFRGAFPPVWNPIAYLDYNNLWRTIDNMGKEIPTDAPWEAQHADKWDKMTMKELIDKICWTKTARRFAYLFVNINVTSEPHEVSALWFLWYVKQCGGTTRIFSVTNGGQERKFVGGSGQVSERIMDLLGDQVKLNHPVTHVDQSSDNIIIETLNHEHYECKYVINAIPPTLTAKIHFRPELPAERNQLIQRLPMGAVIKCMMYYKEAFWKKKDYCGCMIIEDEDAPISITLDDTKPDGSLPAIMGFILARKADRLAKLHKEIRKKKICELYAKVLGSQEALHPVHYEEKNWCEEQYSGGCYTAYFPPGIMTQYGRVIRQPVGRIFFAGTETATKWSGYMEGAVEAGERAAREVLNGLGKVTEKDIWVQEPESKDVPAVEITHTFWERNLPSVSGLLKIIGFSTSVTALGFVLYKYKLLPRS

[7] = Metal chelating activity assessed as compound-Cu2+ complex formation measured by EPR-spectroscopy; type: functional
Homo sapiens = species on record: Homo sapiens; assay: Selectivity index, ratio of IC50 for human MAO-A to IC50 for human MAO-B using Kynuramine as substrate measured by plate reader method
[8] = target: T2, Amine oxidase [flavin-containing] B (Homo sapiens, UniProt P27338); assay: Inhibition of human MAO-B preincubated for 5 mins followed by addition of Kynuramine substrate and measured after 30 mins by plate reader method
T2 sequence (P27338 whole entry): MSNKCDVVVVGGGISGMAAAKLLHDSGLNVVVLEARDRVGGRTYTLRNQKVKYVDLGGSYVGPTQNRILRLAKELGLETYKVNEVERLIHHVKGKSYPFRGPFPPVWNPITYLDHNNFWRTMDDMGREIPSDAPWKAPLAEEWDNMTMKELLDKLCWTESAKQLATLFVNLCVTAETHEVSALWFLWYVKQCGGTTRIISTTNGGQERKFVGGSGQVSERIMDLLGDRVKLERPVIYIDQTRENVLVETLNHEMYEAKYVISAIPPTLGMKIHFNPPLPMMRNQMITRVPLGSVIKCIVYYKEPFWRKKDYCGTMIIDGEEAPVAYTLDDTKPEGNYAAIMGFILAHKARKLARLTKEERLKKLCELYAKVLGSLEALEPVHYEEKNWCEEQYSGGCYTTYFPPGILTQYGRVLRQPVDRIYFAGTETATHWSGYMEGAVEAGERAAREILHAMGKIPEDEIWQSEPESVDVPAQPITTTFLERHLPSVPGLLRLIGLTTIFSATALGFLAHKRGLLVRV

[9] = Radical scavenging activity of compound in presence of Cu+2 measured after 15 mins by ABTS radical scavenging activity in relative to clioquinol; type: functional
[10] = target: T2, Amine oxidase [flavin-containing] B; assay: Reversible inhibition of human MAO-B using Kynuramine as substrate at pH 7 measured after 30 mins by plate reader method; settings: pH 7, 0.5 h
[11] = target: T2, Amine oxidase [flavin-containing] B; assay: Non-covalent inhibition of human MAO-B using Kynuramine as substrate measured upto 60 mins by plate reader method; settings: 1 h
[12] = target: T2, Amine oxidase [flavin-containing] B; assay: Mixed inhibition of human MAO-B assessed as increase of Km with decrease of Vmax using Kynuramine at 0.3 to 2 uM measured after 30 mins by plate reader method; settings: 0.5 h, dose 0.3-2 µM
[13] = Anti-inflammatory activity in mouse SIM-A9 cells assessed as decrease in LPS-induced IL-6 production at 1 ug/ml preincubated for 1 hr followed by stimulation with LPS and measured after 23 hrs by ELISA assay; type: functional; set-up: scale not given: the % may be the effect or the level left; settings: dose 1 µg/ml; time 24 hrs
[14] = Anti-inflammatory activity in mouse SIM-A9 cells assessed as decrease in LPS-induced TNF-alpha production at 1 ug/ml preincubated for 1 hr followed by stimulation with LPS and measured after 23 hrs by ELISA assay; type: functional; set-up: scale not given: the % may be the effect or the level left; settings: dose 1 µg/ml; time 24 hrs
[15] = Anti-inflammatory activity in mouse SIM-A9 cells assessed as decrease in LPS-induced IL-6 production at 2 uM preincubated for 1 hr followed by stimulation with LPS and measured after 23 hrs by ELISA assay; type: functional; set-up: scale not given: the % may be the effect or the level left; settings: time 24 hrs
[16] = Anti-inflammatory activity in mouse SIM-A9 cells assessed as decrease in LPS-induced TNF-alpha production at 2 uM preincubated for 1 hr followed by stimulation with LPS and measured after 23 hrs by ELISA assay; type: functional; set-up: scale not given: the % may be the effect or the level left; settings: time 24 hrs
[17] = Anti-inflammatory activity in mouse SIM-A9 cells assessed as decrease in LPS-induced IL-6 production at 8 uM preincubated for 1 hr followed by stimulation with LPS and measured after 23 hrs by ELISA assay; type: functional; set-up: scale not given: the % may be the effect or the level left; settings: time 24 hrs
[18] = Toxicity in human SH-SY5Y cells assessed by changes in mitochondrial membrane potential at 0.1 to 100 uM measured after 24 hrs by JC-1 probe based fluorescence reader assay; type: cell-based; settings: dose 0.1-100 µM
[19] = Anti-inflammatory activity in mouse SIM-A9 cells assessed as decrease in LPS-induced TNF-alpha production at 4 uM preincubated for 1 hr followed by stimulation with LPS and measured after 23 hrs by ELISA assay; type: functional; set-up: scale not given: the % may be the effect or the level left; settings: time 24 hrs
[20] = Toxicity in human SH-SY5Y cells assessed as change in respiratory states by measuring LEAK at 0.1 to 100 uM measured after 24 hrs by respirometer; type: cell-based; settings: dose 0.1-100 µM
[21] = Toxicity in human SH-SY5Y cells assessed by intracellular dehydrogenase activity at 100 uM measured after 24 hrs by WST-1 assay; type: cell-based; settings: read-out: Activity
[22] = Toxicity in human SH-SY5Y cells assessed as change in respiratory states by measuring ROX at 0.1 to 100 uM measured after 24 hrs by respirometer; type: cell-based; settings: dose 0.1-100 µM
[23] = Toxicity in human SH-SY5Y cells assessed by glutathione depletion at 10 uM measured after 24 hrs by monochlorobimane based plate reader assay; type: cell-based
[24] = Toxicity in human SH-SY5Y cells assessed by intracellular dehydrogenase activity at 10 uM measured after 24 hrs by WST-1 assay; type: cell-based; settings: read-out: Activity
[25] = Toxicity in human SH-SY5Y cells assessed as change in respiratory states by measuring ETS at 0.1 to 100 uM measured after 24 hrs by respirometer; type: cell-based; settings: dose 0.1-100 µM
[26] = Anti-inflammatory activity in mouse SIM-A9 cells assessed as decrease in LPS-induced IL-6 production at 4 uM preincubated for 1 hr followed by stimulation with LPS and measured after 23 hrs by ELISA assay; type: functional; set-up: scale not given: the % may be the effect or the level left; settings: time 24 hrs
[27] = Toxicity in human SH-SY5Y cells assessed as change in respiratory states by measuring ROUTINE at 0.1 to 100 uM measured after 24 hrs by respirometer; type: cell-based; settings: dose 0.1-100 µM
[28] = Anti-inflammatory activity in mouse SIM-A9 cells assessed as decrease in LPS-induced TNF-alpha production at 8 uM preincubated for 1 hr followed by stimulation with LPS and measured after 23 hrs by ELISA assay; type: functional; set-up: scale not given: the % may be the effect or the level left; settings: time 24 hrs
[29] = target: T2, Amine oxidase [flavin-containing] B; assay: Mixed inhibition of human MAO-B using Kynuramine as substrate measured upto 60 mins by plate reader method; settings: 1 h
[30] = target: T2, Amine oxidase [flavin-containing] B; assay: Competitive inhibition of human MAO-B assessed as increase of Km with constant Vmax using Kynuramine at 0.05 to 0.2 uM measured after 30 mins by plate reader method; settings: 0.5 h, dose 0.05-0.2 µM

SMILES	Papp at 6 h [1] [×10⁻⁶ cm/s]	inhibition [2] [%]	IC50 [6] [µM]	Selectivity Index (Homo sapiens)	IC50 [8] [nM]	IC50 (SH-SY5Y) [µM]	MNTD [3] [µM]	IC50 [4] [µM]	further results
C#CCNC1=CC(=O)c2cccc(OCC)c2C1=O	18.5	11.2	–	–	–	> 64	32	> 64	–
C#CCN(C)C1=C(Cl)C(=O)c2ccccc2C1=O	14	40.5	10	71	140	3.3	2	7.3	Activity [5]: Active; Activity [7]: Active; Activity [9]: 5%
C#CCNC1=CC(=O)c2ccccc2C1=O	20.8	24	9.81	36	270	> 64	4	34.6	inhibition (INH) [10]: Active; inhibition (INH) [11]: Active; inhibition (INH) [12]: Active
C[C@@H]1C[C@H]2[C@@H]3CCC4=CC(=O)C=C[C@]4(C)[C@@]3(F)[C@@H](O)C[C@]2(C)[C@@]1(O)C(=O)CO [DEXAMETHASONE]	–	–	–	–	–	–	–	–	Activity [13]: 40%; Activity [14]: 60%
C#CCN(C)C1=CC(=O)c2ccccc2C1=O	18.5	67.4	6.64	0.77	8620	22	8	36.1	–

The next lines start with results.

Papp at 6 h [1] [×10⁻⁶ cm/s]	inhibition [2] [%]	IC50 [6] [µM]	Selectivity Index (Homo sapiens)	IC50 [8] [nM]	SMILES	IC50 (SH-SY5Y) [µM]	MNTD [3] [µM]	IC50 [4] [µM]	further results
0.04	–	–	–	–	CNC(=C[N+](=O)[O-])NCCSCc1ccc(CN(C)C)o1 [RANITIDINE]	–	–	–	–
25.5	17.5	–	–	–	C#CCNC1=CC(=O)c2cccc(OCc3ccccc3)c2C1=O	> 64	8	> 32	Activity [15]: 95%; Activity [16]: 76%; Activity [17]: 49%; Activity [18]: Non-Toxic; Activity [19]: 74%; Activity [20]: Non-Toxic; Activity [5]: 15%; viability at 24 h, 100 µM [21]: 88%; Activity [22]: Non-Toxic; Activity [23]: 89%; Activity [7]: Active; viability at 24 h, 10 µM [24]: 89%; Activity [25]: Non-Toxic; Activity [26]: 74%; Activity [27]: Non-Toxic; Activity [28]: 46%; Activity [9]: 10%
–	93.1	–	–	–	C[C@H]1c2cccc(O)c2C(=O)C2=C(O)[C@]3(O)C(=O)C(C(N)=O)=C(O)[C@@H](N(C)C)[C@@H]3[C@@H](O)[C@@H]21	–	–	–	–
18.8	15.5	–	–	–	C#CCNC1=CC(=O)c2cccc(OC)c2C1=O	> 32	8	116	–
29.4	18.4	7.76	155	50	C#CCNC1=C(Cl)C(=O)c2ccccc2C1=O	4.6	4	10.4	Activity [5]: Active; inhibition (INH) [29]: Active; Activity [7]: Active; inhibition (INH) [30]: Active
43.3	21.7	–	–	–	C#CCNC1=CC(=O)c2c(O)ccc(O)c2C1=O	15	0.4	5.3	–
